Test results: patent publication US20260124200A1, “METHOD OF TREATING NEURODEGENERATIVE DISEASES” (The Board of Trustees of the University of Illinois, priority 2022, published 2026)

Assays:
fpn-1.2KO C. elegans [1] = assay: Dopaminergic neurodegeneration scoring in fpn-1.2KO; Pdat::GFP worms; assay type: in vivo
From the text: (§1) The ability of hinokitiol and FeM-1269 to confer neuroprotection. Replicated NBIA, was created fpn-1.2KO C. elegans strain using CRISPR/Cas9-mediated knockout and then mated with Pdat::GFP strain to create a fpn-1.2KO strain with GFP-tagged dopaminergic neurons (fpn-1.2KO; Pdat::GFP). The genotype of strains was verified by genotyping PCR and Sanger sequencing. All strains used have been backcrossed to N2 at least three times. To treat C. elegans with small molecules, day 4 adult worms were transferred to NGM containing small molecules. Worms were transferred to newly seeded small molecules containing NGM until the day seven in which they are imaged using a confocal microscope with GFP fluorescence. The scoring is conducted in a blinded study in which the integrity of the dopaminergic neuron is observed to reflect neurodegeneration. […] Hinokitiol derivative FeM-1269 may have potential to increase the therapeutic index of hinokitiol. […] On the other hand, hinokitiol and FeM-1269 treatment to fpn-1.2KO worms caused robust reductions of fluorescence levels (FIG. 3G-H) from the concentration of 0.1 μM and 0.05 μM, respectively, which can be associated with the release of intracellular iron from ASI neurons. […]

fpn-1.2KO C. elegans [2] = assay: GFP-tagged ferritin (ftn-1) fluorescence in ASI neurons of fpn-1.2KO worms; assay type: in vivo
From the text: as §1

human apo-Tf = human apo-Tf (Homo sapiens, UniProt P02787); assay: Iron handoff to transferrin; assay type: biochemical
Experimental: For kinetic experiments, 4 μM human apo-Tf was incubated with 64 μM Fe(Hino)3 complex. The reactions were stopped at several time points using sample buffer. Samples were run using the same conditions as above. After running, the gels were stained with RAPIDStain (G-biosciences 786-31), according to the manufacturer's instructions. The formation of different Fe-Tf species was quantified by measuring the band densities using ImageLab 4.1 (Bio-Rad) and expressed as a function of molar fractions.

[3] = EPR of Fe(II) oxidation on compound binding
[4] = LC-MS in vitro dopamine oxidation assay; assay type: physicochemical; conditions: 100 μM dopamine
Experimental: To monitor dopamine oxidation, an in vitro assay using an LC-MS was developed by monitoring dopamine concentrations via mass spectrometry hits. Samples of 100 μM dopamine were prepared and then treated with either control, hino, or FeM-1269. […] In addition, this was monitored via LC-MS to see the concentration of DAC generated in this same process.

[5] = Cyclic voltammetry of hinokitiol-iron complexes; assay type: physicochemical; conditions: 100 mV/s, 0.1 M Tris, 1:1 MeOH:H2O, pH=7.2, 100 μM Fe(NO3)3
Experimental: These were obtained with a 100 mV/s scan rate with a Hg electrode, Ag/AgCl reference, and graphite auxiliary using a 0.1 M Tris buffer in 1:1 MeOH:H2O at pH=7.2 and 100 μM Fe(NO3)3.

flatiron mice = assay: ICP-MS brain iron level in flatiron mice; assay type: in vivo
Experimental: In parallel to C. elegans, flatiron mice were used, a leading animal model of FPN1 deficiency due to H32R mutation of FPN1 (34, 35). These mice were subjected to ICP-MS and behavioral studies in which blood samples and tissues were collected and submitted for analysis. In addition, behavior was assessed by an elevated plus maze, exploratory mazes, and daily monitoring. […] To determine dose-dependency these mice were subjected to a singular IP injection to assess acute administration and then treated chronically via IP injections of 10 mg/kg for a week.

FPN1.2KO C. elegans = assay: ROS (DCF) in lysate of treated FPN1.2KO C. elegans; assay type: in vivo; conditions: treated day four, collected day 5, lysate with DCF

human apo-Tf, sequence (P02787 20-698): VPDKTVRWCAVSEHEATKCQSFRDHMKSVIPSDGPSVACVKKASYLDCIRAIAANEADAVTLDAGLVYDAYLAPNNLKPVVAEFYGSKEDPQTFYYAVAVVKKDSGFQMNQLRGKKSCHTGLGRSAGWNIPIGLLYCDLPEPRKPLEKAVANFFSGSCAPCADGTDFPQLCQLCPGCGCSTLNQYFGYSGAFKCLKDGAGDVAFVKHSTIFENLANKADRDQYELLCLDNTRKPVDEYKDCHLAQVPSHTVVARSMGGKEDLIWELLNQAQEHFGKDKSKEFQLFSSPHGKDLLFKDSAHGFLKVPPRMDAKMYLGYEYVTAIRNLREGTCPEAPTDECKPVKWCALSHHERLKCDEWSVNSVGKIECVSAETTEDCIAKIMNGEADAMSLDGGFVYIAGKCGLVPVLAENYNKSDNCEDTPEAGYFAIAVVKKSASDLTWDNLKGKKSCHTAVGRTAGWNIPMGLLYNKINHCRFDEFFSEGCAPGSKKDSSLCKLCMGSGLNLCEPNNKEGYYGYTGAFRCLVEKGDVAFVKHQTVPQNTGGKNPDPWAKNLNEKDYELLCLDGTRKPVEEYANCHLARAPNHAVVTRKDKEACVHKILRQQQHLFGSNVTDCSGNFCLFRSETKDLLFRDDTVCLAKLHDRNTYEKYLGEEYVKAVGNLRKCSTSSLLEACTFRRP

For `Cc1c(O)c(=O)ccn1C` [DFP, deferiprone], the “neuroprotective effect (dopaminergic neurodegeneration score)” value (fpn-1.2KO C. elegans [1]; all concentrations administered) was “did not confer neuroprotective effects” and the “ferritin-GFP fluorescence level in ASI neurons” value (fpn-1.2KO C. elegans [2]; all administered concentrations) was “failed to reduce the fluorescence level”.
For `CC(C)c1cccc(=O)c(O)c1` [hinokitiol], the “iron handoff to transferrin” value (human apo-Tf) was “can handoff iron to transferrin”, the “ferroxidase-mimicking activity (EPR)” value ([3]; EPR results) was “promoting Fe(II) oxidation to Fe(III)” and the “EPR signal g′” value ([3]; Fe(II) plus compound 3:1, 1:1 MeOH:H2O, 77K) was 4.3. For the same molecule, the “dopamine oxidation (dopamine remaining)” value [4] was “mitigating dopamine oxidation”, the “redox potentials of Fe:Hino” value [5] was “decreased with increasing hinokitiol concentrations” and the “concentration showing neuroprotective efficacy” value (fpn-1.2KO C. elegans [1]; worms treated day 4 to day seven) was 0.05 to 0.1 µM. The blood-brain barrier penetration (flatiron mice; inferred from brain iron decrease) was “capacity to penetrate blood-brain barrier”, the “brain iron level after acute administration” value (flatiron mice; singular IP injection) was “dose-dependent decrease of brain iron level” and the “ROS level in vivo” value (FPN1.2KO C. elegans) was “restore wild type levels of ROS”. The “concentration from which fluorescence levels are robustly reduced” value (fpn-1.2KO C. elegans [2]; ASI neurons, GFP-tagged ferritin) was no less than 0.1 µM.
